Reference: US20220096516A1, “OLIGONUCLEOTIDE MOLECULE AND APPLICATION THEREOF IN TUMOR THERAPY” (Ractigen Therapeutics, priority 2019, published 2022)
d = 2'-deoxy (DNA); r = 2'-OH (RNA)

System: LHPP gene
Test: High-throughput screening of saRNAs targeting LHPP promoter: LHPP mRNA by one-step RT-qPCR in Huh7 cells
Type: cell-based, human
Conditions: 10 nM saRNA, 72 hours, relative to control (Mock)
Method: Human liver cancer cell line Huh7 was cultured in DMEM medium (Gibco), containing 10% of calf serum (Sigma-Aldrich) and 1% of penicillin/streptomycin (Gibco). The cells were cultured at 5% CO2 and 37° C. According to the instructions provided by the manufacturer, RNAiMax (Invitrogen, Carlsbad, Calif.) was used to transfect small activating RNAs at a concentration of 10 nM (unless otherwise specified).
At the end of transfection, the media were discarded, and each well was washed with 150 μL of PBS once. After discarding the PBS, 50 μL of cell lysis buffer (Takara) was added to each well and incubated at room temperature for 5 min. 1 μL of the resulted cell lysis was taken from each well and analyzed by qPCR on an ABI 7500 fast real-time PCR system (Applied Biosystems) using a one-step TB Green™ PrimeScrip™ RT-PCR kit II (Takara, RR086A) Each transfection sample was repeatedly amplified in 3 replicate wells.
Reaction conditions were as follows: reverse transcription reaction (stage 1): 5 min at 42° C., 10 s at 95° C.; PCR reaction (stage 2): 5 s at 95° C., 20 s at 60° C., 45 cycles of amplification. HPRT1 and TBP were used as internal reference genes. PCR primers used for amplifying LHPP, HPRT1 and TBP genes are shown in Table 2, wherein LHPP was amplified using the LHPP F1/R1 primer pair.
To calculate the relative expression level (Erel) of LHPP (target gene) in an saRNA-transfected sample relative to control treatment (Mock), the Ct values of the target gene and the two internal reference genes were substituted into formula 1
Erel=2^(CtT^m^-CtT^s^)/((2^(CtR1^m^-CtR1^s^)*2^(CtR2^m^-CtR2^s^))^(1/2))
wherein CtTm was the Ct value of the target gene from the control (Mock) sample; CtTs was the Ct value of the target gene from the saRNA-treated sample; CtR1m was the Ct value of the internal reference gene 1 from the control (Mock) sample; CtR1s was the Ct value of the internal reference gene 1 from the saRNA-treated sample; CtR2m was the Ct value of the internal reference gene 2 from the control (Mock) sample; and CtR2s was the Ct value of the internal reference gene 2 from the saRNA-treated sample.
In order to obtain saRNAs capable of activating LHPP transcription, Huh7 cells were transfected with each of the aforementioned 290 saRNAs with a transfection concentration of 10 nM, and 72 hours later, according to the same method as described above, the cells were lysed and analyzed by one-step RT-qPCR to obtain the relative (compared with the control (Mock)) expression level of LHPP gene for each saRNA-treated sample. […] The observed maximum activation and maximum inhibition is 3.46 fold and 0.49 fold, respectively, saRNAs with activating activity are referred to as activating saRNAs, and the saRNAs with inhibiting activity are referred to as inhibiting saRNAs.

Substance	Fold of changes in relative LHPP mRNA expression level [fold]	Fold of changes in relative LHPP mRNA expression level (log2)
RAG7-176: saRNA duplex; sense UUUGCCUUUGACCUUUCUUTT (SEQ ID NO: 110), antisense AAGAAAGGUCAAAGGCAAATT (SEQ ID NO: 274) (sugars from the 5' end r19 d2, backbone not given here)	1.20	0.26
RAG7-100: saRNA duplex; sense UUCCGAAAAGGACACCGUUTT (SEQ ID NO: 125), antisense AACGGUGUCCUUUUCGGAATT (SEQ ID NO: 289) (sugars from the 5' end r19 d2, backbone not given here)	1.17	0.22
RAG7-34: saRNA duplex; sense GUUUGCACCCGGUCUUCUUTT (SEQ ID NO: 26), antisense AAGAAGACCGGGUGCAAACTT (SEQ ID NO: 190) (sugars from the 5' end r19 d2, backbone not given here)	1.51	0.59
RAG7-137: saRNA duplex; sense UCCUGCUCUUUGUCCGCUGTT (SEQ ID NO: 151), antisense CAGCGGACAAAGAGCAGGATT (SEQ ID NO: 315) (sugars from the 5' end r19 d2, backbone not given here)	1.12	0.16
RAG7-86: saRNA duplex; sense CCGUUUCAGGGGCGAGUGATT (SEQ ID NO: 137), antisense UCACUCGCCCCUGAAACGGTT (SEQ ID NO: 301) (sugars from the 5' end r19 d2, backbone not given here)	1.15	0.20
RAG7-188: saRNA duplex; sense UUCUUGUCUCAAUUUGCCUTT (SEQ ID NO: 21), antisense AGGCAAAUUGAGACAAGAATT (SEQ ID NO: 185) (sugars from the 5' end r19 d2, backbone not given here)	1.55	0.64
RAG7-191: saRNA duplex; sense GCCUUCUUGUCUCAAUUUGTT (SEQ ID NO: 88), antisense CAAAUUGAGACAAGAAGGCTT (SEQ ID NO: 252) (sugars from the 5' end r19 d2, backbone not given here)	1.25	0.32
RAG7-902: saRNA duplex; sense CUCAAAGCUAUGUUGGACCTT (SEQ ID NO: 50), antisense GGUCCAACAUAGCUUUGAGTT (SEQ ID NO: 214) (sugars from the 5' end r19 d2, backbone not given here)	1.38	0.46
RAG7-97: saRNA duplex; sense CGAAAAGGACACCGUUUCATT (SEQ ID NO: 71), antisense UGAAACGGUGUCCUUUUCGTT (SEQ ID NO: 235) (sugars from the 5' end r19 d2, backbone not given here)	1.29	0.37
RAG7-907: saRNA duplex; sense GAAAGCUCAAAGCUAUGUUTT (SEQ ID NO: 22), antisense AACAUAGCUUUGAGCUUUCTT (SEQ ID NO: 186) (sugars from the 5' end r19 d2, backbone not given here)	1.55	0.63
RAG7-174: saRNA duplex; sense UGCCUUUGACCUUUCUUAGTT (SEQ ID NO: 49), antisense CUAAGAAAGGUCAAAGGCATT (SEQ ID NO: 213) (sugars from the 5' end r19 d2, backbone not given here)	1.38	0.47
RAG7-887: saRNA duplex; sense GACCAGAAGUAAAGUGUUCTT (SEQ ID NO: 51), antisense GAACACUUUACUUCUGGUCTT (SEQ ID NO: 215) (sugars from the 5' end r19 d2, backbone not given here)	1.37	0.46
RAG7-695: saRNA duplex; sense CAGGUCCUAUGCAUCCUCATT (SEQ ID NO: 54), antisense UGAGGAUGCAUAGGACCUGTT (SEQ ID NO: 218) (sugars from the 5' end r19 d2, backbone not given here)	1.36	0.44
RAG7-113: saRNA duplex; sense CUGGGAAGAAAGCUUCCGATT (SEQ ID NO: 120), antisense UCGGAAGCUUUCUUCCCAGTT (SEQ ID NO: 284) (sugars from the 5' end r19 d2, backbone not given here)	1.18	0.24
RAG7-905: saRNA duplex; sense AAGCUCAAAGCUAUGUUGGTT (SEQ ID NO: 92), antisense CCAACAUAGCUUUGAGCUUTT (SEQ ID NO: 256) (sugars from the 5' end r19 d2, backbone not given here)	1.24	0.31
RAG7-708: saRNA duplex; sense UUUCUUCUCAGCCCAGGUCTT (SEQ ID NO: 106), antisense GACCUGGGCUGAGAAGAAATT (SEQ ID NO: 270) (sugars from the 5' end r19 d2, backbone not given here)	1.21	0.27
RAG7-187: saRNA duplex; sense UCUUGUCUCAAUUUGCCUUTT (SEQ ID NO: 123), antisense AAGGCAAAUUGAGACAAGATT (SEQ ID NO: 287) (sugars from the 5' end r19 d2, backbone not given here)	1.17	0.22
RAG7-171: saRNA duplex; sense CUUUGACCUUUCUUAGGGATT (SEQ ID NO: 80), antisense UCCCUAAGAAAGGUCAAAGTT (SEQ ID NO: 244) (sugars from the 5' end r19 d2, backbone not given here)	1.27	0.34
RAG7-183: saRNA duplex; sense GUCUCAAUUUGCCUUUGACTT (SEQ ID NO: 27), antisense GUCAAAGGCAAAUUGAGACTT (SEQ ID NO: 191) (sugars from the 5' end r19 d2, backbone not given here)	1.51	0.59
RAG7-892: saRNA duplex; sense UGUUGGACCAGAAGUAAAGTT (SEQ ID NO: 2), antisense CUUUACUUCUGGUCCAACATT (SEQ ID NO: 166) (sugars from the 5' end r19 d2, backbone not given here)	2.05	1.03
